Measured values taken from patent publication US10829473B2, “Modulators of the cystic fibrosis transmembrane conductance regulator protein and methods of use” (AbbVie Overseas S.Á.R.L., priority 2017, dated 2020).
Where two headings read alike, the source gives them in different places. Marks after values point to notes of the source that are not given here.

Target: T1, F508delCFTR (Homo sapiens, UniProt P13569, DEL508-508)
T1 construct: expressed in transfected cells; host or cells: CFBE41o- human lung derived epithelial cells (CFBE41o-F508delCFTR-HRP), doxycycline-inducible
T1 sequence (P13569 with tags, fused parts or gaps DEL508-508): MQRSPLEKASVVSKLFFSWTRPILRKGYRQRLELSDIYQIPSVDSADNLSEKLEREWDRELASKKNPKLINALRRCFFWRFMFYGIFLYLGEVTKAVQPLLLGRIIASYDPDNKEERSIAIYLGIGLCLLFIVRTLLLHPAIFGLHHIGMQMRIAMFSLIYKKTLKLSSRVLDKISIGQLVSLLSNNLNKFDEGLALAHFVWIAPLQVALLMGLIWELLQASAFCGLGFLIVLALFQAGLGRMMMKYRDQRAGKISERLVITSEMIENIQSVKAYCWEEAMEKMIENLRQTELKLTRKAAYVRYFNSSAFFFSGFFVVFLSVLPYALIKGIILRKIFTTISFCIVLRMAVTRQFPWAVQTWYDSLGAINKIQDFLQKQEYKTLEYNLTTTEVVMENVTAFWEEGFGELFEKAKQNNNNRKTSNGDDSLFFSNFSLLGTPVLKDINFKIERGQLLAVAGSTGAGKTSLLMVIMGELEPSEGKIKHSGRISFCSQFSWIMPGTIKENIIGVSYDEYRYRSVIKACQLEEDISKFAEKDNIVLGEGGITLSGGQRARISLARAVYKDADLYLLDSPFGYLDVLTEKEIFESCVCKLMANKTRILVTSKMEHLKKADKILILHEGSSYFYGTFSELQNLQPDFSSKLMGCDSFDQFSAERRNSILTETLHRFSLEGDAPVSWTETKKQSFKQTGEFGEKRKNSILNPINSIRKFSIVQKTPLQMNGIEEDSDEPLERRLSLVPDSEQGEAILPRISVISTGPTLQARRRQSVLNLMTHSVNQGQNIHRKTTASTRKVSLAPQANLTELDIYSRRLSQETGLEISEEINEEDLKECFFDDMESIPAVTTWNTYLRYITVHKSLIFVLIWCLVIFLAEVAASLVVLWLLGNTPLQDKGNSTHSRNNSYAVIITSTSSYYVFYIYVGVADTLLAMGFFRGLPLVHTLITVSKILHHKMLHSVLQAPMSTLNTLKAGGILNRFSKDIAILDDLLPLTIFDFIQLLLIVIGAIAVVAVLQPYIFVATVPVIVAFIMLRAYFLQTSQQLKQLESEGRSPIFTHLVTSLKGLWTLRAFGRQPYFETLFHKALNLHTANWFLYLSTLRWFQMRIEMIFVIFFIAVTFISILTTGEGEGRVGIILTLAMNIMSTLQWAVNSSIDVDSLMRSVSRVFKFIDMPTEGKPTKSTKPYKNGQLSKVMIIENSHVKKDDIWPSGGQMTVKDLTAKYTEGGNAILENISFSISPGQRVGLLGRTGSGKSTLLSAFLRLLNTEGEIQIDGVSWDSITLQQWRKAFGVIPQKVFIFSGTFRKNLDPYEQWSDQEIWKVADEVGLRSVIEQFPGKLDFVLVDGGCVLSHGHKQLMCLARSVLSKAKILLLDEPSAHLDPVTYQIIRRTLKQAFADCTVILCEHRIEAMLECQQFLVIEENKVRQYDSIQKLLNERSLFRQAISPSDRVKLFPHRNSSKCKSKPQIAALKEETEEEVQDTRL
Test: Cell Surface Expression-Horse Radish Peroxidase (CSE-HRP) Assay;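 as to EC50 (with co-corrector): co-corrector chromenyl benzoic acid corrector at 2 or 3 µM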;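 as to Maximum % activity (without co-corrector): % of on-plate positive control chromenyl benzoic acid corrector at 2 or 3 µM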
Format: cell-based
Details: for Emax: read-out: Maximum % activity (without co-corrector)
Method in brief: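 Corrector compounds were given as 8-point 3-fold series from 20 or 30 μM, with or without a 2 μM co-corrector, for 18-24 h at 33 °C. Surface HRP was read by luminol luminescence as % of positive control; variable-Hill-slope sigmoidal fitting gave EC50 from triplicate plates.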

[1] = test compound alone, without co-corrector, read-out: EC50 (without co-corrector)
[2] = with co-corrector, maximum at any tested concentration
[3] = with co-corrector, read-out: EC50 (with co-corrector)
[4] = without co-corrector, maximum at any tested concentration
[5] = test compound with co-corrector, maximum at any tested concentration
[6] = test compound with co-corrector, read-out: EC50 (with co-corrector)
[7] = test compound without co-corrector, maximum at any tested concentration
[8] = test compound without co-corrector, read-out: EC50 (without co-corrector)

| Molecule | EC50 [1] [µM] | Maximum % activity (with co-corrector) [2] | EC50 [3] [µM] | Emax [4] [%] | Maximum % activity (with co-corrector) [5] | EC50 [6] [µM] | Emax [7] [%] | EC50 [8] [µM] | Maximum % activity (without co-corrector) [7] | EC50 (with co-corrector) (test compound with co-corrector) | EC50 (without co-corrector) (test compound without co-corrector) |
| --- | --- | --- | --- | --- | --- | --- | --- | --- | --- | --- | --- |
| O=C(NS(=O)(=O)c1cccc2c1CCCN2)C1(c2ccc(C(F)(F)F)nc2C2CCC2)CC1 [Example GI-10, 1-[2-cyclobutyl-6-(trifluoromethyl)pyridin-3-yl]-N-(1,2,3,4-tetrahydroquinoline-5-sulfonyl)cyclopropane-1-carboxamide] | < 3 | +++ (≥350) | < 3 | > 150 | – | – | – | – | – | – | – |
| O=C(NS(=O)(=O)c1cccc2ncccc12)C1(c2ccc(C(F)(F)F)nc2C2CCC2)CC1 [GII-14, 1-[2-cyclobutyl-6-(trifluoromethyl)pyridin-3-yl]-N-(quinoline-5-sulfonyl)cyclopropane-1-carboxamide] | – | – | – | – | +++ (≥350) | 3 to 10 | > 150 | 3 to 10 | – | – | – |
| Cc1ccc(OC(C)C)c(C2(C(=O)NS(=O)(=O)c3cccc4nc(N)ccc34)CC2)c1 [Example I-87, N-(2-aminoquinoline-5-sulfonyl)-1-{5-methyl-2-[(propan-2-yl)oxy]phenyl}cyclopropane-1-carboxamide] | < 3 | +++ (≥350) | < 3 | > 150 | – | – | – | – | – | – | – |
| 1-[5-(cyclopropylmethoxy)-2-methoxypyridin-4-yl]-N-(2-methylquinoline-5-sulfonyl)cyclopropane-1-carboxamide [Example GI-93] | – | – | – | – | +++ (≥350) | < 3 | – | < 3 | +++ (≥150) | – | – |
| CCOc1ccc(C(C)(C)OCC)cc1C1(C(=O)NS(=O)(=O)c2cccc3ncccc23)CC1 [Example I-99, 1-[2-ethoxy-5-(2-ethoxypropan-2-yl)phenyl]-N-(quinoline-5-sulfonyl)cyclopropane-1-carboxamide] | < 3 | +++ (≥350) | < 3 | > 150 | – | – | – | – | – | – | – |
| COc1cccc(OCC2CC2)c1C1(C(=O)NS(=O)(=O)c2cccc3ncccc23)CC1 [Example I-46, 1-[2-(cyclopropylmethoxy)-6-methoxyphenyl]-N-(quinoline-5-sulfonyl)cyclopropane-1-carboxamide] | < 3 | +++ (≥350) | < 3 | > 150 | – | – | – | – | – | – | – |
| COCC1CCN(c2ncc(C3CCC3)cc2C2(C(=O)NS(=O)(=O)c3cccc4[nH]ccc34)CC2)CC1 [Example GI-118, 1-{5-cyclobutyl-2-[4-(methoxymethyl)piperidin-1-yl]pyridin-3-yl}-N-(1H-indole-4-sulfonyl)cyclopropane-1-carboxamide] | – | – | – | – | +++ (≥350) | < 3 | > 150 | < 3 | – | – | – |
| CCc1cnc(OCCOC)c(C2(C(=O)NS(=O)(=O)c3cccc4nc(C)ccc34)CC2)c1 [GII-56, 1-[5-ethyl-2-(2-methoxyethoxy)pyridin-3-yl]-N-(2-methylquinoline-5-sulfonyl)cyclopropane-1-carboxamide] | – | – | – | – | +++ (≥350) | 3 to 10 | > 150 | 3 to 10 | – | – | – |
| COc1ccc(C2CC2)cc1C1(C(=O)NS(=O)(=O)c2cccc3ncccc23)CC1 [II-57] | – | +++ (≥350) | – | > 150 | – | – | – | – | – | – | – |
| CN(C)c1ncc(C(F)(F)F)cc1C1(C(=O)NS(=O)(=O)c2cccc3ccccc23)CC1 [Example I-30, 1-[2-(dimethylamino)-5-(trifluoromethyl)pyridin-3-yl]-N-(naphthalene-1-sulfonyl)cyclopropane-1-carboxamide] | < 3 | +++ (≥350) | < 3 | > 150 | – | – | – | – | – | – | – |
| COc1ccc(OC2CCC2)cc1C1(C(=O)NS(=O)(=O)c2cccc3ncccc23)CC1 [Example I-32, 1-[5-(cyclobutyloxy)-2-methoxyphenyl]-N-(quinoline-5-sulfonyl)cyclopropane-1-carboxamide] | < 3 | +++ (≥350) | < 3 | > 150 | – | – | – | – | – | – | – |
| CCOc1ccc(C)cc1C1(C(=O)NS(=O)(=O)c2cccc3[nH]ncc23)CC1 [II-74] | < 3 | +++ (≥350) | < 3 | > 150 | – | – | – | – | – | – | – |
| CCc1cnc(OCC2CC2)c(C2(C(=O)NS(=O)(=O)c3cccc4ncccc34)CC2)c1 [Example GI-106, 1-[2-(cyclopropylmethoxy)-5-ethylpyridin-3-yl]-N-(quinoline-5-sulfonyl)cyclopropane-1-carboxamide] | – | – | – | – | +++ (≥350) | < 3 | > 150 | < 3 | – | – | – |
| O=C(NS(=O)(=O)c1cccc2ncccc12)C1(c2cc(C3CCC3)cnc2N2CCCC2)CC1 [Example GI-28, 1-[5-cyclobutyl-2-(pyrrolidin-1-yl)pyridin-3-yl]-N-(quinoline-5-sulfonyl)cyclopropane-1-carboxamide] | 3 to 10 | +++ (≥350) | < 3 | > 150 | – | – | – | – | – | – | – |
| COc1ccc(C2CCC2)cc1C1(C(=O)NS(=O)(=O)c2cccc3ncn(C)c23)CCC1 [Example I-24, 1-(5-cyclobutyl-2-methoxyphenyl)-N-(1-methyl-1H-benzimidazole-7-sulfonyl)cyclobutane-1-carboxamide] | < 3 | +++ (≥350) | < 3 | > 150 | – | – | – | – | – | – | – |
| COc1cc(C2(C(=O)NS(=O)(=O)c3cccc4ncccc34)CC2)c(OCC2CC2)cn1 [Example GI-91, 1-[5-(cyclopropylmethoxy)-2-methoxypyridin-4-yl]-N-(quinoline-5-sulfonyl)cyclopropane-1-carboxamide] | – | – | – | – | +++ (≥350) | < 3 | > 150 | 3 to 10 | – | – | – |
| COc1cnc(N2CCCC2)c(C2(C(=O)NS(=O)(=O)c3cccc4ncccc34)CC2)c1 [GII-40, 1-[5-methoxy-2-(pyrrolidin-1-yl)pyridin-3-yl]-N-(quinoline-5-sulfonyl)cyclopropane-1-carboxamide] | – | – | – | – | +++ (≥350) | 3 to 10 | > 150 | 3 to 10 | – | – | – |
| COc1cc(C2(C(=O)NS(=O)(=O)c3cccc4nc(C)ccc34)CC2)c(OCC(C)C)cn1 [Example GI-20, 1-[2-methoxy-5-(2-methylpropoxy)pyridin-4-yl]-N-(2-methylquinoline-5-sulfonyl)cyclopropane-1-carboxamide] | < 3 | +++ (≥350) | < 3 | > 150 | – | – | – | – | – | – | – |
| CCc1cnc(N(C)C)c(C2(C(=O)NS(=O)(=O)c3cccc4ncccc34)CC2)c1 [GII-47, 1-[2-(dimethylamino)-5-ethylpyridin-3-yl]-N-(quinoline-5-sulfonyl)cyclopropane-1-carboxamide] | – | – | – | – | +++ (≥350) | > 10 | > 150 | 3 to 10 | – | – | – |

The next lines start with the values.

| EC50 [1] [µM] | Maximum % activity (with co-corrector) [2] | EC50 [3] [µM] | Emax [4] [%] | Maximum % activity (with co-corrector) [5] | EC50 [6] [µM] | Emax [7] [%] | EC50 [8] [µM] | Maximum % activity (without co-corrector) [7] | EC50 (with co-corrector) (test compound with co-corrector) | EC50 (without co-corrector) (test compound without co-corrector) | Molecule |
| --- | --- | --- | --- | --- | --- | --- | --- | --- | --- | --- | --- |
| < 3 | +++ (≥350) | < 3 | > 150 | – | – | – | – | – | – | – | COc1ccc(C23CC(C2)C3)cc1C1(C(=O)NS(=O)(=O)c2cccc3c2CCCN3)CC1 [Example III-101, 1-[5-(bicyclo[1.1.1]pentan-1-yl)-2-methoxyphenyl]-N-(1,2,3,4-tetrahydroquinoline-5-sulfonyl)cyclopropane-1-carboxamide] |
| 3 to 10 | ++ (≥150 and <350) | 3 to 10 | < 50 | – | – | – | – | – | – | – | O=C(NS(=O)(=O)c1ccccc1)C1(c2ccccc2Cl)CC1 [Example III-32, N-(benzenesulfonyl)-1-(2-chlorophenyl)cyclopropane-1-carboxamide] |
| – | – | – | – | + (<150) | > 10 | < 50 | > 10 | – | – | – | CC(C)Oc1ncc(CO)cc1C1(C(=O)NS(=O)(=O)c2cccc3ncccc23)CC1 [GIII-35] |
| > 10 | ++ (≥150 and <350) | 3 to 10 | < 50 | – | – | – | – | – | – | – | O=C(NS(=O)(=O)c1ccccc1)C1(c2ccccc2)CC1 [Example III-6, N-(benzenesulfonyl)-1-phenylcyclopropane-1-carboxamide] |
| > 10 | ++ (≥150 and <350) | 3 to 10 | < 50 | – | – | – | – | – | – | – | CN(C)c1cccc2c(S(=O)(=O)NC(=O)C3(c4cccc(Cl)c4)CC3)cccc12 [Example III-58, 1-(3-chlorophenyl)-N-[5-(dimethylamino)naphthalene-1-sulfonyl]cyclopropane-1-carboxamide] |
| 3 to 10 | +++ (≥350) | < 3 | > 150 | – | – | – | – | – | – | – | COc1c(Cl)cc(Cl)c(OC)c1C1(C(=O)NS(=O)(=O)c2cccc3ncccc23)CC1 [Example III-103, 1-(3,5-dichloro-2,6-dimethoxyphenyl)-N-(quinoline-5-sulfonyl)cyclopropane-1-carboxamide] |
| > 10 | + (<150) | > 10 | < 50 | – | – | – | – | – | – | – | O=C(NS(=O)(=O)CC(F)(F)F)C1(c2ccc(Cl)cc2Cl)CC1 [Example III-106, 1-(2,4-dichlorophenyl)-N-(2,2,2-trifluoroethanesulfonyl)cyclopropane-1-carboxamide] |
| – | – | – | – | ++ (≥150 and <350) | – | 50 to 150 | – | – | ++^a | ++^a | O=C(NS(=O)(=O)c1cccc2ccccc12)C1(c2ccc(C(F)(F)F)nc2Cl)CC1 [GIII-21] |
